Drawing on patent US20220227737A1, “NOVEL OXALYL PIPERAZINES ACTIVE AGAINST THE HEPATITIS B VIRUS (HBV)” (AiCuris GmbH & Co. KG, priority 2019, published 2022), this text covers CC50, IC50 and EC50 for 7 compounds.

Series [1] is described as follows: Cell viability assay (AlamarBlue). The note with it: human, HepAD38 cells. Background: Resazurin is reduced to fluorescent resorufin, in cell work by metabolically active cells.
The target of series [2] is T1, C-terminal truncated core protein (HBV core dimer, BODIPY-FL labelled) (UniProt P03146).
T1 construct: fused on or other part: One added cysteine at position 150, labelled with BODIPY-FL maleimide; The C-terminal arginine-rich domain is absent
T1 sequence (P03146 whole entry, the tested form may be a part): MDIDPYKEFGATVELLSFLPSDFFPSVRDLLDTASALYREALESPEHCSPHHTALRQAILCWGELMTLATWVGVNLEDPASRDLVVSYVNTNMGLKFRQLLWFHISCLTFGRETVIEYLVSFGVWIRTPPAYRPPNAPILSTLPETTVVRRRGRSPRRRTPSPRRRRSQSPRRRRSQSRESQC
Description: Biochemical capsid assembly assay (fluorescence quenching). The essentials: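 E. coli-expressed HBV core 1–149 plus Cys150 dimer, BODIPY-FL-labelled, at 1.0–2.0 μM in 50 mM HEPES pH 7.5, 0.5% DMSO. 8-point compound series; assembly started with NaCl, fluorescence quenching (ex 477/em 525 nm) read after 6 min. EC50 by non-linear regression versus 2.5 M and 0 M NaCl controls.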

Another series relates to HBV. The series can be described thus: HBV replication assay: HBV DNA from the supernatants of HepAD38 cells. Format: cell-based. The note with it: Hepatitis B virus, 144 h, HBV DNA in supernatant at day 6, read-out: Cell Activity. The protocol: Determination of HBV DNA from the Supernatants of HepAD38 Cells
The anti-HBV activity was analysed in the stable transfected cell line HepAD38, which has been described to secrete high levels of HBV virion particles (Ladner et al., 1997). In brief, HepAD38 cells were cultured at 37° C. at 5% CO2 and 95% humidity in 200 μl maintenance medium, which was Dulbecco's modified Eagle's medium/Nutrient Mixture F-12 (Gibco, Karlsruhe), 10% fetal bovine serum (PAN Biotech Aidenbach) supplemented with 50 μg/ml penicillin/streptomycin (Gibco, Karlsruhe), 2 mM L-glutamine (PAN Biotech, Aidenbach), 400 μg/ml G418 (AppliChem, Darmstadt) and 0.3 μg/ml tetracycline. Cells were subcultured once a week in a 1:5 ratio, but were usually not passaged more than ten times. For the assay 60,000 cells were seeded in maintenance medium without any tetracycline into each well of a 96-well plate and treated with serial half-log dilutions of test compound. To minimize edge effects the outer 36 wells of the plate were not used but were filled with assay medium. On each assay plate six wells for the virus control (untreated HepAD38 cells) and six wells for the cell control (HepAD38 cells treated with 0.3 μg/ml tetracycline) were allocated, respectively. In addition, one plate set with reference inhibitors like BAY 41-4109, entecavir, and lamivudine instead of screening compounds were prepared in each experiment. In general, experiments were performed thrice in triplicates. At day 6 HBV DNA from 100 μl filtrated cell culture supernatant (AcroPrep Advance 96 Filter Plate, […] Supor membran, PALL GmbH, Dreieich) was automatically purified on the MagNa Pure LC instrument using the MagNA Pure 96 DNA and Viral NA Small Volume Kit (Roche Diagnostics, Mannheim) according to the instructions of the manufacturer. EC50 values were calculated from relative copy numbers of HBV DNA In brief, 5 μl of the 100 μl eluate containing HBV DNA were subjected to PCR LC480 Probes Master Kit (Roche) together with 1 μM antisense primer […], 0.5 μM sense primer […], 0.3 μM hybprobes […]-FL and LC640-[…]-PH (TIBMolBiol, Berlin) to a final volume of […]. The PCR was performed on the Light Cycler 480 real time system (Roche Diagnostics, Mannheim) using the following protocol: Pre-incubation for 1 min at 95° C., amplification: 40 cycles×(10 sec at 95° C., 50 sec at 60° C., 1 sec at 70° C.), cooling for 10 sec at 40° C. Viral load was quantitated against known standards using HBV plasmid DNA of pCH-9/3091 (Nassal et al., 1990, Cell 63: 1357-1363) and the LightCycler 480 SW 1.5 software (Roche Diagnostics, Mannheim) and EC50 values were calculated using non-linear regression with GraphPad Prism 6 (GraphPad Software Inc., La Jolla, USA).

Some results are limits rather than exact numbers.

On to `CC(C)(O)CNC(=O)C(=O)N1CCN(C(=O)c2cc3ccccc3[nH]2)CC1` [Example 32, 2-(4-(1H-indole-2-carbonyl)piperazin-1-yl)-N-(2-hydroxy-2-methylpropyl)-2-oxoacetamide], for which the CC50 at 6 days in series [1] was more than 100 µM. Also, the IC50 in series [2] was less than 5 µM. Also, the EC50 in the series with HBV is less than 1000 nM.

`O=C(NC1CCOC1)C(=O)N1CCN(C(=O)c2cc3ccccc3[nH]2)CC1` (stereo not drawn) [Example 35, 2-(4-(1H-indole-2-carbonyl)piperazin-1-yl)-2-oxo-N-(tetrahydrofuran-3-yl)acetamide] yielded a CC50 at 6 days in series [1] of more than 100 µM. In series [2], this compound registered an IC50 of 5 to 10 µM. Also, the EC50 in the series with HBV was less than 1000 nM.

Compound `CCCCNC(=O)C(=O)N1CCN(C(=O)c2cc3cccc(Br)c3[nH]2)CC1` [Example 5, 2-[4-(7-bromo-1H-indole-2-carbonyl)piperazin-1-yl]-N-butyl-2-oxoacetamide] returned a CC50 at 6 days in series [1] of more than 100 µM. The compound also showed an IC50 in series [2] of less than 5 µM. Moreover, in the series on HBV, the EC50 is less than 1000 nM.

`O=C(NCCCCO)C(=O)N1CCN(C(=O)c2cc3ccccc3[nH]2)CC1` [Example 29, 2-(4-(1H-indole-2-carbonyl)piperazin-1-yl)-N-(4-hydroxybutyl)-2-oxoacetamide] registered a CC50 at 6 days in series [1] of more than 100 µM. In series [2], this compound yielded an IC50 of less than 5 µM. The EC50 with HBV lay in the range of 1000 to 10000 nM.

In turn, `CC1(CNC(=O)C(=O)N2CCN(C(=O)c3cc4ccccc4[nH]3)CC2)CCOC1` (stereo not drawn) [Example 12, 2-[4-(1H-indole-2-carbonyl)piperazin-1-yl]-N-[(3-methyloxolan-3-yl)methyl]-2-oxoacetamide] displayed a cytotoxic concentration (CC50) at 6 days in series [1] of more than 100 µM. The compound also registered an IC50 in series [2] of less than 5 µM. Also, the EC50 in the series on HBV is less than 1000 nM.

`O=C(NCC1(O)CCC1)C(=O)N1CCN(C(=O)c2cc3ccccc3[nH]2)CC1` [Example 30, 2-(4-(1H-indole-2-carbonyl)piperazin-1-yl)-N-((1-hydroxycyclobutyl)methyl)-2-oxoacetamide] gave a cytotoxic concentration (CC50) at 6 days in series [1] of more than 100 µM. In series [2], this compound came in with an IC50 of less than 5 µM. For the same compound, the EC50 in the series with HBV is less than 1000 nM.

`CC(O)CCCNC(=O)C(=O)N1CCN(C(=O)c2cc3c(F)cc(F)cc3[nH]2)CC1` (stereo not drawn) [Example 60, 2-(4-(4,6-difluoro-1H-indole-2-carbonyl)piperazin-1-yl)-N-(4-hydroxypentyl)-2-oxoacetamide]: the half-maximal cytotoxic concentration (CC50) at 6 days in series [1] is more than 100 µM. Besides, the IC50 in series [2] was less than 5 µM. Besides, the EC50 with HBV was less than 1000 nM.

As a reminder, the CC50 is the concentration giving 50% cytotoxicity. A low value points to harm at low concentration. As usually defined, the IC50 is the concentration at which inhibition is half-maximal. Low values mean greater potency in that assay, high ones weaker potency in that assay.
